# In US10660967B2, “Curcumin conjugates and methods of use thereof” (priority 2016, dated 2020):
# Test system: carrageenan induced paw edema
# Assay: Anti-inflammatory activity: acute carrageenan induced paw edema in rats
# Assay type: in vivo, Wister rats
# Conditions: 10 mg kg^−1 indomethacin mol equivalent; for % inhibition of edema / Mean edema thickness: intraperitoneally; for Mean edema thickness: mean ± SE; for Potency (% inhibition of edema relative to that of indomethacin reference standard): at 4 h effect
# Description: The anti-inflammatory activity of the tested compounds was determined in vivo by the acute carrageenan induced paw edema standard method in rats. See, Naumov, et al., Bioorg. Med. Chem. Lett, 25: 2314-2320 (2015), Tiwari, et al., Org. Biomol. Chem, 12: 7238-7249 (2014), Girgis, et al., Eur. J. Med. Chem, 50: 1-8 (2012), Barsoum, et al., Eur. J. Med. Chem, 44: 2172-2177 (2009), Girgis, et al., Eur. J. Med. Chem, 44: 1972-1977 (2009), Girgis, et al., Eur. J. Med. Chem, 44: 1257-1264 (2009), Girgis, et al., Eur. J. Med. Chem, 44: 91-100 (2009), Girgis, et al., Eur. J. Med. Chem, 43: 2116-2121 (2008), Girgis, et al., Bioorg. Med. Chem, 14: 8527-8532 (2006), and Barsoum, et al., Bioorg. Med. Chem, 14: 3929-3937 (2006).
# Adult Wister rats of either sex (pregnant female animals were excluded) weighing 120-150 g were divided into 18 groups of 6 animals each. […] The control group was given DMSO only. Carrageenan paw edema was induced by subcutaneous injection of freshly prepared 1% solution of carrageenan in saline (0.9%, 0.1 ml per rat) into subplantar tissue of the right hind paw of rats. The thickness of the paw was measured (in mm) after successive time intervals (1, 2,3,4 and 24 h) and compared with the initial hind paw thickness of each rat for determining the edema thickness. Data were collected, checked, revised and analyzed. Quantitative variables from normal distribution were expressed as means±SE “standard error”. The anti-inflammatory activity was expressed as percentage inhibition of edema thickness in treated animals in comparison with the control group according to eqn. (1)
# Where, Vc and Vt are the mean of edema paw thickness for the control and tested compound treated animal groups, respectively.
SMILES,% inhibition of edema (1 h),Mean edema thickness (1 h),% inhibition of edema (2 h),Mean edema thickness (2 h),% inhibition of edema (3 h),Mean edema thickness (3 h),% inhibition of edema (4 h),Mean edema thickness (4 h),% inhibition of edema (24 h),Mean edema thickness (24 h),Potency (% inhibition of edema relative to that of indomethacin reference standard)
COc1cc(/C=C/C(=O)CC(=O)/C=C/c2ccc(OC(=O)[C@@H](C)NC(=O)OC(C)(C)C)c(OC)c2)ccc1OC(=O)[C@@H](C)NC(=O)OC(C)(C)C [Compound 26],22%,1.87 ± 0.13 mm,29%,1.46 ± 0.21 mm,39%,1.09 ± 0.11 mm,42%,0.81 ± 0.08 mm,37%,0.52 ± 0.05 mm,48
COc1cc(/C=C/C(=O)CC(=O)/C=C/c2ccc(OC(=O)CCNC(=O)OC(C)(C)C)c(OC)c2)ccc1OC(=O)CCNC(=O)OC(C)(C)C [Compound 27],31%,1.66 ± 0.19 mm,33%,1.38 ± 0.11 mm,45%,0.99 ± 0.12 mm,61%,0.55 ± 0.07 mm,28%,0.60 ± 0.03 mm,70
COc1cc(/C=C/C(=O)CC(=O)/C=C/c2ccc(OC(=O)[C@H](CCSC)NC(=O)OC(C)(C)C)c(OC)c2)ccc1OC(=O)[C@H](CCSC)NC(=O)OC(C)(C)C [Compound 28],34%,1.59 ± 0.21 mm,36%,1.31 ± 0.18 mm,44%,1.01 ± 0.17 mm,88%,0.17 ± 0.02 mm,23%,0.64 ± 0.05 mm,101
COc1cc(/C=C/C(=O)CC(=O)/C=C/c2ccc(OC(=O)[C@@H](CCSC)NC(=O)OC(C)(C)C)c(OC)c2)ccc1OC(=O)[C@@H](CCSC)NC(=O)OC(C)(C)C [Compound 29],58%,1.01 ± 0.14 mm,69%,0.63 ± 0.11 mm,74%,0.47 ± 0.08 mm,89%,0.15 ± 0.06 mm,41%,0.49 ± 0.09 mm,102
COc1cc(/C=C/C(=O)CC(=O)/C=C/c2ccc(OC(=O)[C@@H](NC(=O)OC(C)(C)C)C(C)C)c(OC)c2)ccc1OC(=O)[C@@H](NC(=O)OC(C)(C)C)C(C)C [Compound 30],13%,2.09 ± 0.21 mm,24%,1.57 ± 0.19 mm,25%,1.34 ± 0.11 mm,43%,0.80 ± 0.08 mm,30%,0.58 ± 0.10 mm,49
CC[C@H](C)[C@H](NC(=O)OC(C)(C)C)C(=O)Oc1ccc(/C=C/C(=O)CC(=O)/C=C/c2ccc(OC(=O)[C@@H](NC(=O)OC(C)(C)C)[C@@H](C)CC)c(OC)c2)cc1OC [Compound 31],33%,1.61 ± 0.11 mm,38%,1.27 ± 0.07 mm,49%,0.91 ± 0.05 mm,51%,0.69 ± 0.02 mm,41%,0.49 ± 0.03 mm,59
COc1cc(/C=C/C(=O)CC(=O)/C=C/c2ccc(OC(=O)[C@H](CCC(N)=O)NC(=O)OC(C)(C)C)c(OC)c2)ccc1OC(=O)[C@H](CCC(N)=O)NC(=O)OC(C)(C)C [Compound 32],10%,2.16 ± 0.17 mm,16%,1.73 ± 0.09 mm,32%,1.22 ± 0.12 mm,41%,0.83 ± 0.06 mm,57%,0.36 ± 0.02 mm,47
COc1cc(/C=C/C(=O)CC(=O)/C=C/c2ccc(OC(=O)CN)c(OC)c2)ccc1OC(=O)CN.Cl.Cl [Compound 33],66%,0.82 ± 0.09 mm,67%,0.69 ± 0.03 mm,74%,0.46 ± 0.03 mm,88%,0.17 ± 0.01 mm,42%,0.48 ± 0.03 mm,101
COc1cc(/C=C/C(=O)CC(=O)/C=C/c2ccc(OC(=O)[C@@H](N)Cc3ccccc3)c(OC)c2)ccc1OC(=O)[C@@H](N)Cc1ccccc1.Cl.Cl [Compound 34],46%,1.29 ± 0.14 mm,51%,1.01 ± 0.11 mm,63%,0.66 ± 0.08 mm,84%,0.22 ± 0.03 mm,20%,0.66 ± 0.04 mm,97
COc1cc(/C=C/C(=O)CC(=O)/C=C/c2ccc(OC(=O)[C@H](C)N)c(OC)c2)ccc1OC(=O)[C@H](C)N.Cl.Cl [Compound 35],37%,1.51 ± 0.12 mm,42%,1.19 ± 0.10 mm,53%,0.85 ± 0.09 mm,66%,0.47 ± 0.04 mm,16%,0.70 ± 0.06 mm,76
COc1cc(/C=C/C(=O)CC(=O)/C=C/c2ccc(OC(=O)C(C)N)c(OC)c2)ccc1OC(=O)C(C)N.Cl.Cl (stereo not drawn) [Compound 36],54%,1.11 ± 0.08 mm,54%,0.94 ± 0.09 mm,55%,0.81 ± 0.05 mm,84%,0.22 ± 0.02 mm,28%,0.60 ± 0.06 mm,97
COc1cc(/C=C/C(=O)CC(=O)/C=C/c2ccc(OC(=O)[C@@H](C)N)c(OC)c2)ccc1OC(=O)[C@@H](C)N.Cl.Cl [Compound 37],61%,0.95 ± 0.11 mm,62%,0.79 ± 0.13 mm,74%,0.46 ± 0.09 mm,96%,0.06 ± 0.01 mm,29%,0.59 ± 0.07 mm,110
